Measurements published in patent US20200061062A1, “INHIBITORS OF HUMAN PHOSPHATIDYLINOSITOL 3-KINASE DELTA” (ICOS Corporation, priority 2000, published 2020).
“And” between values parts separate entries of the source, which are not always exact repeats. Identical values can stand only once.

Assays:
[1] = system: T cell proliferation; test: Stimulated T cell proliferation (Mouse TCE Stim, Table 4); type: cell-based; conditions: stimulated T cell proliferation, read-out: Mouse TCE Stim (EC50)
[2] = system: human neutrophils; test: fMLP-induced human neutrophil migration; type: cell-based; conditions: neutrophil (PMN) migration, read-out: Human PMN Migration (EC50)
Method: Neutrophils have the intrinsic capacity to migrate through tissues, and are one of the first cell types to arrive at the sites of inflammation or tissue injury. The effect of D-000 on neutrophil migration towards a concentration gradient of fMLP was measured. The day before the migration assays were performed, 6-well plates were coated with recombinant ICAM-1/Fc fusion protein (Van der Vieren et al., Immunity, 3:683-690 (1995)) (25 μg/mL in bicarbonate buffer, pH 9.3) and left overnight at 4° C. After washing, 1% agarose solution, in RPMI-1640 with 0.5% bovine serum albumin (BSA), was added to wells with or without an inhibitor, and plates were placed into a refrigerator before punching holes in the gelled agarose to create plaques (1 central hole surrounded by 6 peripheral ones per well).
Human neutrophils were obtained as described above, and resuspended in RPMI medium supplemented with 0.5% BSA at 5×10^6 cells/mL. After combining equal volumes of neutrophil suspension and medium (either with DMSO or a serial dilution of the test compound in DMSO), neutrophils were aliquoted into the peripheral holes, while the central hole received fMLP (5 μM). Plates were incubated at 37° C. in the presence of 5% CO2 for 4 hr, followed by termination of migration by the addition of 1% glutaraldehyde solution in D-PBS. After removing the agarose layer, wells were washed with distilled water and dried.
Analysis of neutrophil migration was conducted on a Nikon DIAPHOT® inverted microscope (1× objective) video workstation using the NIH 1.61 program. Using Microsoft Excel and Table Curve 4 (SSPS Inc., Chicago Ill.) programs, a migration index was obtained for each of the studied conditions. Migration index was defined as the area under a curve representing number of migrated neutrophils versus the net distance of migration per cell.
Using the methods described in Examples 3-5, above, compounds of the invention were tested for inhibitory activity and potency in assays of stimulated B and T cell proliferation, neutrophil (PMN) migration, and neutrophil (PMN) elastase release. In Table 4, the values shown are effective concentrations of the compound (EC50; μM). Where no value is given, no assay was performed.

[3] = system: human neutrophils; test: Elastase exocytosis from neutrophils (fMLP-induced); type: cell-based; conditions: neutrophil (PMN) elastase release
Outline: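 Human blood neutrophils (Ficoll-Hypaque) treated with compound or DMSO, then stimulated 90 min at 37 °C with 1 μM fMLP plus 0.01 mg/mL cytochalasin B, 1.0 μM NaN3 and 5 μg/mL L-methionine. Supernatant elastase read at 410 nm over 2 h on MeO-suc-AAPV-pNA, normalized to uninhibited; EC50 in μM.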

[4] = Levels of D-030 in circulation (air pouch test); type: in vivo; conditions: rat, blood, po; rats, 100 mg/kg in PEG 400 orally, twelve hours following dosing; read-out: Average compound in circulation
Method: (§1) The test was performed as follows: on day zero, groups of rats were shaved and 10 ml of air was injected subcutaneously on the back of each, forming a pouch. On day three, 10 ml of air was reinjected. […] Six hours following dosing, the air pouches of both groups received 2.5 ng of TNF. Twelve hours following dosing, the pouches were washed with saline, and the resulting lavage fluid was analyzed for leukocyte counts and neutrophil elastase activity. In addition, blood was drawn to determine the levels of D-030 in circulation. […] Reductions in specific leukocyte counts were as follows: neutrophils (90%), eosinophils (66%), and lymphocytes (70%).

[5] = system: rats; test: Six-day air pouch model, TNF challenge, leukocyte counts and neutrophil elastase in lavage fluid; type: in vivo, rat; conditions: 100 mg/kg orally, TNF 2.5 ng
Method: The six-day air pouch model is an in vivo inflammation model that histologically resembles a joint synovium. A lining of organized mononuclear cells and fibroblasts develops that closely resembles a synovial cavity. The model represents an “acute” model of a chronic disease (e.g., rheumatoid arthritis). This model allows for the in vivo evaluation of agents to block cellular influx into the air pouch under the influence of an inflammatory stimulus.
as §1

[6] = system: Murine splenocytes (Balb/c); test: B cell proliferation in response to cell surface IgM stimulation; type: cell-based; conditions: Mus musculus, Splenocyte; stimulated B cell proliferation; read-out: Mouse BCR Stim (EC50)
Outline: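 Balb/c splenocytes (2×10^5/well, 10% FBS/RPMI) preincubated 30-60 min with inhibitor, then stimulated with goat F(ab′)2 anti-mouse IgM μ-chain at 25 μg/mL final. Cultured 3 days at 37° C., [^3H]-thymidine pulsed for final 4 h; incorporation counted as CPM. Values are EC50 (μM).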

[7] = system: mouse; test: Mouse air pouch, TNF-α challenge, elastase exocytosis in lavage; type: in vivo; conditions: 32 mg/kg in LABRAFIL one hour before and two hours after TNF-α, FIG. 9
[8] = biological target: T1, PI3Kδ (Homo sapiens, UniProt O00329, S253N); test: Biochemical assay using 200 μM ATP, Delta;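 also: radiometric filter-binding assay: PI3Kδ transfers ³²P from γ-[³²P]ATP onto PIP2/PS liposomes, counted by scintillation, enzyme-only wells as positive control, no-enzyme wells as background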
Method: PI3Kδ catalyzes a phosphotransfer from γ-[^32P]ATP to PIP2/PS liposomes at the D3′ position of the PIP2 lipid inositol ring. This reaction is MgCl2 dependent and is quenched in high molarity potassium phosphate buffer pH 8.0 containing 30 mM EDTA. […] The reaction products (and all unlabelled products) are transferred to a 96-well, prewetted PVDF filter plate, filtered, and washed in high molarity potassium phosphate. Scintillant is added to the dried wells and the incorporated radioactivity is quantitated.
This dilution established a final concentration of 200 μM ATP in the reaction volume. The reaction was stopped with 150 μL quench buffer (1.0 M potassium phosphate pH 8.0, 30 mM EDTA). A portion of the quenched solution (180 μL) was then transferred to a PVDF filter plate (Millipore # MAIP NOB prewetted with sequential 200 μL washes of 100% methanol, water, and finally 1.0 M potassium phosphate pH 8.0 wash buffer).
The PVDF filter plate was aspirated under moderate vacuum (2-5 mm Hg), washed with 5×200 μL of wash buffer, and then dried by aspiration. The filter was subsequently blotted, allowed to air dry completely, and inserted into a Wallac counting cassette with 50 μL of Ecoscint scintillation cocktail added per well.
Subsequent selectivity assays were done similarly using the same 3× substrate stocks except they contained 0.05 mCi/mL γ[^32P]ATP and 3 mM PIP2. Subsequent selectivity assays also used the same 3× enzyme stocks, except they now contained 3 nM of any given PI3K isoform.
For all selectivity assays, the test compounds were weighed out and dissolved into 10-50 mM stocks in 100% DMSO (depending on their respective solubilities) and stored at −20° C. […] From these dilutions, 20 μL was added into the assay wells alongside water blanks used for the enzyme (positive) control and the no enzyme (background) control.
This selectivity protocol is identical to that described above, except the 3× stock ATP concentration was 600 μM.

[9] = system: osteoclasts; test: Osteoclast function, pit depths on dentine slices; type: cell-based, mouse; conditions: inhibitor 100 nM + osteopontin (OPN) 25 μg/mL, 72 hr; two experiments; OPN alone 10 ± 0.5 and 9 ± 0.4
Method: To analyze the effect of the PI3Kδ inhibitor D-000 on osteoclasts, mouse bone marrow cells were isolated and differentiated them to osteoclasts by treating the cells with Macrophage Colony Stimulating Factor^−1 (mCSF^−1) and Osteoprotegerin Ligand (OPGL) in serum-containing medium (αMEM with 10% heat-inactivated FBS; Sigma) for 3 days. On day four, when the osteoclasts had developed, the medium was removed and cells were harvested. The osteoclasts were plated on dentine slices at 10^5 cells/well in growth medium, i.e., αMEM containing 1% serum and 2% BSA with […] and 10 ng/mL mCSF-1. After 3 hr, the medium was changed to 1% serum and 1% BSA, with or without osteopontin (25 μg/mL) and the PI3K inhibitors (100 nM). The medium was changed every 24 hours with fresh osteopontin and the inhibitors. At 72 hr, the medium was removed, and the dentine surfaces were washed with water to remove cell debris and stained with acid hematoxylin. Excess stain was washed and the pit depths were quantitated using confocal microscopy.

[10] = biological target: T1, PI3Kδ; test: Biochemical assay of PI3K potency and selectivity using 20 μM ATP, Delta; set-up: His tag (pFastbac HTb vector) (N); FLAG; made in house; host or cells: Sf21 insect cells (baculovirus)
Outline: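 Lipid-kinase radiometric assay with γ-[32P]ATP (20 μM ATP) on PIP2/PS liposomes in 20 mM HEPES pH 7.4; the 3× substrate mix held […] and 6 μM liposomes.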

[11] = system: basophils; test: Basophil histamine release assay; type: cell-based, human; conditions: Homo sapiens; at the highest concentration, 10,000 nM
Method: Assessment of the effect of a compound of the invention on basophil function was tested using a conventional histamine release assay, generally in accordance with the method described in Miura et al., J Immunol, 162:4198-206 (1999). Briefly, enriched basophils were preincubated with test compounds at several concentrations from 0.1 nM to 1,000 nM, for 10 min at 37° C. Then, polyclonal goat antihuman IgE (0.1 μg/mL) or fMLP was added, and allowed to incubate for an additional 30 min. Histamine released into the supernatant was measured using an automated fluorometric technique. Two compounds were tested, shown below.

T1 sequence (O00329 whole entry S253N): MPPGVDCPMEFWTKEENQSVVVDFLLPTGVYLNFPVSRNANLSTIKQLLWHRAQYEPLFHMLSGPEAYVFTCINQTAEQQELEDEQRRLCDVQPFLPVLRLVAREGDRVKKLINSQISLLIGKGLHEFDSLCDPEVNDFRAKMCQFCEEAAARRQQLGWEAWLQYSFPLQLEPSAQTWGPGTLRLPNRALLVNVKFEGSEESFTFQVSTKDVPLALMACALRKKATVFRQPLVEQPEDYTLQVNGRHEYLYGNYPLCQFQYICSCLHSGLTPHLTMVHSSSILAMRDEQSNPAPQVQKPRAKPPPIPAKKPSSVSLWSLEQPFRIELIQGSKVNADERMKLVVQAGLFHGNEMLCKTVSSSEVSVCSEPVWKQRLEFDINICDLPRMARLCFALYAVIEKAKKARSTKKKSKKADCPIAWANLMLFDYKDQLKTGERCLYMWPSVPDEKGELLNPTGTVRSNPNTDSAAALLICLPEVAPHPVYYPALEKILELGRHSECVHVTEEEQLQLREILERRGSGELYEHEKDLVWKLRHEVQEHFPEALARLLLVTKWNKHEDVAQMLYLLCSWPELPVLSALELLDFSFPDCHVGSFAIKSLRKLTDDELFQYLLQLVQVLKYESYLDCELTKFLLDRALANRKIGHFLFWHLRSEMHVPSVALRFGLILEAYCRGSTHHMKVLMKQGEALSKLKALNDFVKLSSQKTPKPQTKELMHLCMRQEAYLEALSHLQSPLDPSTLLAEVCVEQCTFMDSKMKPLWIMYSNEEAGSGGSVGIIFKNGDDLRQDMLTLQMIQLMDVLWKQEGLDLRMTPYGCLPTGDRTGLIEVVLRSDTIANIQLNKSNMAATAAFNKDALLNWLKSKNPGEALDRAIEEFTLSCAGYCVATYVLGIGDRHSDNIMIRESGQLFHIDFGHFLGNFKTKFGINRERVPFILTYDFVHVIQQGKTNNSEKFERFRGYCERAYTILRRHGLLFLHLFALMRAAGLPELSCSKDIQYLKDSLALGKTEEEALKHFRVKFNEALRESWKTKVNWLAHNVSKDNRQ
T1 sequence (P27986 whole entry partner): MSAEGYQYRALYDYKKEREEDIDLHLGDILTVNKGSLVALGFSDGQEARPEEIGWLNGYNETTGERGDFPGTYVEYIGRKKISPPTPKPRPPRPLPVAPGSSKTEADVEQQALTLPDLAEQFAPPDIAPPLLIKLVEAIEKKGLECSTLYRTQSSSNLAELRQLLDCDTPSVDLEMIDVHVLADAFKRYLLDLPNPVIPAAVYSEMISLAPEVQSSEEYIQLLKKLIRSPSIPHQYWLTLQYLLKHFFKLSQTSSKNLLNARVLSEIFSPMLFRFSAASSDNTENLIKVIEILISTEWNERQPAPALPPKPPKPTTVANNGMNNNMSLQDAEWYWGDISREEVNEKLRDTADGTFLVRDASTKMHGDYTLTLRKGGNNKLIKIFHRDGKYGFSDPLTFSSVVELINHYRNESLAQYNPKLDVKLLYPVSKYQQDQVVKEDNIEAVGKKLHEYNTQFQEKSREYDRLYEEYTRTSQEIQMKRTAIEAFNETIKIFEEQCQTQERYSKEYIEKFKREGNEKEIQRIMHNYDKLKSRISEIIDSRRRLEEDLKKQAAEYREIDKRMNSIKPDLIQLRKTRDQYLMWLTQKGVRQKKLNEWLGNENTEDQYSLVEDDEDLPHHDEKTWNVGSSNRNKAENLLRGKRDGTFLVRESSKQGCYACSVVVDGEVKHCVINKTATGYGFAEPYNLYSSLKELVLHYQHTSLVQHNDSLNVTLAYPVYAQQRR

`Cc1ccccc1-n1c(Cn2cnc3c(N)ncnc32)nc2cccc(C)c2c1=O` [Compound D-030, 2-(6-Aminopurin-9-ylmethyl)-5-methyl-3-o-tolyl-3H-quinazolin-4-one] gave an EC50 [1] of 6000 nM, an EC50 [2] of 200 nM and an EC50 [3] of 400 ± 500 nM. For the same compound, the concentration at 12 h [4] was 8.7 µM, the “Reduction in eosinophils count in lavage fluid” value [5] was 66% and the “Reduction in lymphocytes count in lavage fluid” value [5] was 70%. The “Reduction in neutrophils count in lavage fluid” value [5] was 90%, the “Reduction in total leukocytes in the lavage fluid compared to vehicle controls” value [5] was 82% and the “Reduction of neutrophil elastase levels versus vehicle controls” value [5] was 15%. For the same compound, the EC50 [6] was 100 ± 100 nM and the “Elastase activity in the air pouch lavages of TNF challenged animals” value [7] was “significant decrease”.
For `O=c1cc(N2CCOCC2)oc2c(-c3ccccc3)cccc12` [LY294002, reference compound], the IC50 [8] was 2100 ± 1500 nM, the “Pit depths (osteoclast activity), Table 1” value [9] was 4.6 ± 0.22 and 5.8 ± 0.5 and the IC50 ([10]; 20 μM ATP, read-out: Delta IC50) was 230 nM. It also gave an IC50 ([10]; Example 2 assay conditions, read-out: IC50, δ isoform of PI3K (FIG. 1)) of 300 to 1000 nM, an EC50 [6] of 900 ± 500 nM and an inhibition at 10 µM [11] of roughly 100%.
For `COC[C@H]1OC(=O)c2coc3c2[C@@]1(C)C1=C(C3=O)[C@@H]2CCC(=O)[C@@]2(C)C[C@H]1OC(C)=O` [Wortmannin, wortmannin], the “Pit depths (osteoclast activity), Table 1” value [9] was 5.7 ± 0.6 and 5 ± 0.5.
